Source: patent US20200255828A1, “METHODS AND COMPOSITIONS FOR ALTERING FUNCTION AND STRUCTURE OF CHROMATIN LOOPS AND/OR DOMAINS” (THE BROAD INSTITUTE, INC., priority 2017, published 2020)
Values joined by “and” are separate entries in the source; they are usually repeats but may differ in a detail not shown here. Identical values can stand only once.

Legend:
HCT-116 RAD21-mAC cells [1] = test: In situ Hi-C: loops and loop domains (HiCCUPS, APA), auxin treatment and withdrawal time course; assay type: cell-based, human
Excerpt: To examine loop domains, Applicants used in situ Hi-C(Rao et al., 2014), which combines DNA-DNA proximity ligation and high-throughput sequencing to create maps showing the frequency of physical contact between all pairs of loci across the genome. Loop domains are manifest in Hi-C maps as a bright “peak” pixel (indicating the link between the two loop anchors) at the corner of a bright square (indicating the presence of a contact domain).
To see if these changes were reversible, Applicants performed a time-course analysis in which untreated cells were exposed to auxin for six hours, after which auxin was withdrawn (FIG. 2B, FIG. 9B). Low resolution Hi-C was performed immediately before treatment, as well as at a series of time points during treatment (at 20, 40, 60, 240, and 360 minutes) and after withdrawal (at 20, 40, 60, 180, 360, 1080, and 1440 minutes). To assess whether the anchors of the loop domains seen in the pre-treatment data continued to be linked (that is, co-located in space) subsequently, Applicants used a method called Aggregate Peak Analysis (APA) (Durand et al., 2016b), which superimposes the signals from a set of peak pixels, thus allowing Applicants to observe an aggregate signal even in sparse datasets where individual signals cannot be resolved (FIG. 2B). The APA signal was initially strong, but was gone by 40 minutes after treatment, and remained absent throughout the rest of the treatment period (FIG. 2B, 9B). The disappearance of the loop-domain links closely mirrored the depletion of cohesin levels in the samples during the treatment period, as ascertained by measuring mClover fluorescence (FIG. 8).
For our time course experiments, cells were treated with 500 uM IAA and crosslinked with 1% formaldehyde directly in wells of a 6-well plate at various time points after treatment (20, 40, 60, 240, 360 minutes). For the auxin withdrawal experiments, after 6 hours treatment with 500 um IAA, the cells were trypsinized, washed twice in fresh media and replated in 6-well plates in fresh media. They were then crosslinked with 1% formaldehyde directly in the 6-well plates at various time points after auxin withdrawal (20, 40, 60, 180, 360, 1080, 1440 minutes).
Applicants generated 69 in situ Hi-C libraries using the MboI restriction enzyme following the protocol described in (Rao et al., 2014) without modifications. In brief, the in situ Hi-C protocol involves crosslinking cells with formaldehyde, permeabilizing them with nuclei intact, digesting DNA with a suitable 4-cutter restriction enzyme, filling the 5′-overhangs while incorporating a biotinylated nucleotide, ligating the resulting blunt-end fragments, shearing the DNA, capturing the biotinylated ligation junctions with streptavidin beads, and analyzing the resulting fragments with paired-end sequencing.
Applicants generated 7 libraries each for the main maps (untreated HCT-116 RAD21-mAC cells and HCT-116 RAD21-mAC cells treated for 6 hours with IAA) comprised of two sets of biological replicates each (three and four technical replicate libraries per biological replicate). In addition, Applicants generated four technical replicate libraries each for untreated and treated HCT-116 RAD21-mAC cells after cell synchronization and arrest. Applicants also generated an additional 5 libraries from untreated HCT-116 RAD21-mAC cells and 4 libraries from HCT-116 RAD21-mAC cells treated for 6 hours with IAA (two additional biological replicates each) that were not included in our main maps, but were used for analysis of higher-order contacts (see below). Applicants generated four libraries (two biological replicates) for each of our loop-resolution maps along the auxin withdrawal time course (20, 40, 60 and 180 mins after auxin withdrawal). Finally, Applicants generated two technical replicate libraries per time point of our auxin treatment and withdrawal time course. […]

HCT-116 RAD21-mAC cells [2] = test: 3D-APA of higher-order Hi-C contacts between cohesin-independent loop anchors; assay type: cell-based, human; conditions: auxin-treated data, 131 intrachromosomal trios; none in untreated
Excerpt: To probe this question, Applicants examined concatemers—that is, Hi-C reads which bring together 3 or more loci, and indicate that the loci in question were simultaneously co-located in a particular cell during the Hi-C experiment. Applicants identified 57 million unique “triples,” which bring together 3 loci; 32 million unique quadruples, and 130 thousand quintuples (FIG. 5B, see Methods). Instead of a 2-dimensional heatmap, concatemers are naturally represented as an n-dimensional matrix, or tensor, showing the collision frequency (i.e. the frequency of simultaneous physical contact) between any set of n loci in the genome (FIG. 5C). Hubs involving n loci manifest in the n-dimensional contact tensor as peaks in collision frequency with respect to the local n-dimensional neighborhood. […]
Analysis of higher order contacts. […] The Juicer pipeline (Durand, et al, 2016b) separately outputs abnormal chimeric read pairs (i.e. read pairs that map to more than 2 loci). Applicants combined all of the data from untreated RAD21-mAC cells and all our data from treated RAD21-mAC cells (unsynchronized and synchronized/arrested), parsed the chimeric abnormal reads and deduped them (using the same deduping procedure used in Juicer, only applied to three, four or five positions, rather than just two), retaining unique reads that mapped to three or more positions with MAPQ>=10. […]

How did the “APA score for all loops after auxin treatment” value (HCT-116 RAD21-mAC cells [1]; 10 kb resolution, >300 kb, untreated 2.09) turn out when `O=C(O)Cc1c[nH]c2ccccc12` [auxin, indole-3-acetic acid] was run?
Its value is 0.78.

And the “APA score for loop domains after auxin treatment” value (HCT-116 RAD21-mAC cells [1]; 10 kb resolution, >300 kb, untreated 2.10)?
Its value is 0.78.

And the “number of loop domains found after auxin treatment” value (HCT-116 RAD21-mAC cells [1]; 2,140 in untreated cells, all 9 false positives)?
The value was 9.

What about the “time after auxin withdrawal by which APA signal largely recovered” value (HCT-116 RAD21-mAC cells [1]; after 6 hours auxin) of the same molecule?
Its value is ≤ 1 h.

What about the “time after auxin withdrawal with strong loop domain signal” value (HCT-116 RAD21-mAC cells [1]; after 6 hours auxin) of the same molecule?
Its value is ≤ 60 min.

What about the “number of loops annotated in auxin-treated cells” value (HCT-116 RAD21-mAC cells [1]; default HiCCUPS 5, 10, 25 kb, 3,170 in untreated) of the same molecule?
The value was 81.

And the “loops lost after auxin treatment” value (HCT-116 RAD21-mAC cells [1]; default HiCCUPS parameters)?
Its value is > 97% and ~98%.

What about the “time after auxin withdrawal at which reformation of fast loop domains is apparent” value (HCT-116 RAD21-mAC cells [1]; fast loop domains) of the same molecule?
The value was 20 to 40 min.

What about the “time after auxin withdrawal until reformation of slow loop domains is seen” value (HCT-116 RAD21-mAC cells [1]; slow loop domains) of the same molecule?
Its value is 3 h.

What about the “collisions in the center voxel of the 3D APA cube (three cohesin-independent loop anchors)” value (HCT-116 RAD21-mAC cells [2]) of the same molecule?
Its value is 11.
